Measurements from US8076487B2, “Pyridone derivative and herbicide” (Kumiai Chemical Industry Co., Ltd., priority 2006, dated 2011).

Columns and labels:
Assay type in all cases: in vivo
[1] = test system: barnyardgrass (Echinochloa crus-galli (L.) P. Beauv. var. crus-galli); assay: Test Example 3: herbicidal effect by application to upland field (foliage treatment); conditions: foliage treatment, plants grown two weeks, 1,000 g active ingredient per hectare, 14th day after application
In short: (§1)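 Two weeks after sowing in field soil under greenhouse conditions, seedlings receive a top-down foliar spray of wettable powder diluted in water at an active-ingredient rate of 1,000 g per hectare. Effect is rated against a standard 14 days post-treatment.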

[2] = test system: velvetleaf (Abutilon theophrasti medicus); assay: as above; conditions: foliage treatment, plants grown two weeks, 1,000 g active ingredient per hectare, 14th day after application
In short: as §1

[3] = test system: slender amaranth (Amaranthus viridis L.); assay: as above; conditions: foliage treatment, plants grown two weeks, 1,000 g active ingredient per hectare, 14th day after application
In short: as §1

[4] = test system: green foxtail (Setaria viridis (L.) P. Beauv.); assay: as above; conditions: foliage treatment, plants grown two weeks, 1,000 g active ingredient per hectare, 14th day after application
In short: as §1

[5] = test system: barnyardgrass (Echinochloa crus-galli (L.) P. Beauv. var. crus-galli); assay: Test Example 2: herbicidal effect by soil application to upland field; conditions: soil surface spray, upland field soil, 1,000 g active ingredient per hectare, 21st day after application
In short: (§2)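 Soil-applied wettable powder, 1,000 g a.i./ha, sprayed after sowing onto covered field soil. Effect rated on a standard scale 21 days later in a greenhouse.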

[6] = test system: velvetleaf (Abutilon theophrasti medicus); assay: as above; conditions: soil surface spray, upland field soil, 1,000 g active ingredient per hectare, 21st day after application
In short: as §2

[7] = test system: slender amaranth (Amaranthus viridis L.); assay: as above; conditions: soil surface spray, upland field soil, 1,000 g active ingredient per hectare, 21st day after application
In short: as §2

[8] = test system: green foxtail (Setaria viridis (L.) P. Beauv.); assay: as above; conditions: soil surface spray, upland field soil, 1,000 g active ingredient per hectare, 21st day after application
In short: as §2

[9] = test system: Japanese bulrush (Scirpus juncoides Roxb.); assay: Test Example 1: herbicidal effect by soil application to paddy field; conditions: paddy field soil application; active ingredient 1,000 g per 1 hectare; wettable powder added dropwise to water surface the day after sowing; examined on the 21st day after application
In short: (§3)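 Under greenhouse conditions, seeds sown on puddled paddy soil in 100 cm2 pots under 3 cm of standing water received the test compound; injury was assessed with a standard scoring scheme three weeks (day 21) after treatment.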

[10] = test system: early watergrass (Echinochloa oryzicola Vasing); assay: as above; conditions: paddy field soil application; active ingredient 1,000 g per 1 hectare; wettable powder added dropwise to water surface the day after sowing; examined on the 21st day after application
In short: as §3

[11] = test system: heartshape false pickerelweed (Monochoria vaginalis (Burm.f.) C.Presl); assay: as above; conditions: paddy field soil application; active ingredient 1,000 g per 1 hectare; wettable powder added dropwise to water surface the day after sowing; examined on the 21st day after application
In short: as §3

SMILES | herbicidal effect (index), Barnyardgrass [1] | herbicidal effect (index), Velvetleaf [2] | herbicidal effect (index), Slender Amaranth [3] | herbicidal effect (index), Green Foxtail [4] | herbicidal effect (index), Barnyardgrass [5] | herbicidal effect (index), Velvetleaf [6] | herbicidal effect (index), Slender Amaranth [7] | herbicidal effect (index), Green Foxtail [8] | herbicidal effect, Scirpus juncoides Roxb. [9] | herbicidal effect, Echinochloa oryzicola Vasing [10] | herbicidal effect, Monochoria vaginalis (Burm. f.) C. Presl [11]
N#Cc1ccc(-n2c(C(F)(F)F)ccc(C(=O)C3=C(O)CCCC3=O)c2=O)cc1 [I-95] | 5 (90% or more of herbicidal effect and crop phytotoxicity) | 5 (90% or more of herbicidal effect and crop phytotoxicity) | 5 (90% or more of herbicidal effect and crop phytotoxicity) | 5 (90% or more of herbicidal effect and crop phytotoxicity) | 5 (90% or more of herbicidal effect and crop phytotoxicity) | 5 (90% or more of herbicidal effect and crop phytotoxicity) | 5 (90% or more of herbicidal effect and crop phytotoxicity) | 5 (90% or more of herbicidal effect and crop phytotoxicity) | 5 (90% or more of herbicidal effect and crop phytotoxicity) | 5 (90% or more of herbicidal effect and crop phytotoxicity) | 5 (90% or more of herbicidal effect and crop phytotoxicity)
O=C1CCCC(O)=C1C(=O)c1ccc(C(F)(F)F)n(-c2ccc(Cl)c(Cl)c2)c1=O [I-98] | 5 (90% or more of herbicidal effect and crop phytotoxicity) | 5 (90% or more of herbicidal effect and crop phytotoxicity) | 5 (90% or more of herbicidal effect and crop phytotoxicity) | 5 (90% or more of herbicidal effect and crop phytotoxicity) | 5 (90% or more of herbicidal effect and crop phytotoxicity) | 5 (90% or more of herbicidal effect and crop phytotoxicity) | 5 (90% or more of herbicidal effect and crop phytotoxicity) | 5 (90% or more of herbicidal effect and crop phytotoxicity) | 5 (90% or more of herbicidal effect and crop phytotoxicity) | 5 (90% or more of herbicidal effect and crop phytotoxicity) | 5 (90% or more of herbicidal effect and crop phytotoxicity)
COc1ccc(-n2c(C(F)(F)F)ccc(C(=O)C3=C(O)CCCC3=O)c2=O)c(OC)c1 [I-99] | 5 (90% or more of herbicidal effect and crop phytotoxicity) | 5 (90% or more of herbicidal effect and crop phytotoxicity) | 5 (90% or more of herbicidal effect and crop phytotoxicity) | 4 (70 to less than 90% of herbicidal effect and crop phytotoxicity) | 5 (90% or more of herbicidal effect and crop phytotoxicity) | 5 (90% or more of herbicidal effect and crop phytotoxicity) | 5 (90% or more of herbicidal effect and crop phytotoxicity) | 4 (70 to less than 90% of herbicidal effect and crop phytotoxicity) | 5 (90% or more of herbicidal effect and crop phytotoxicity) | 5 (90% or more of herbicidal effect and crop phytotoxicity) | 5 (90% or more of herbicidal effect and crop phytotoxicity)
COc1ccc(-n2c(C(F)(F)F)ccc(C(=O)C3=C(O)CCCC3=O)c2=O)cc1OC [I-100] | 5 (90% or more of herbicidal effect and crop phytotoxicity) | 5 (90% or more of herbicidal effect and crop phytotoxicity) | 5 (90% or more of herbicidal effect and crop phytotoxicity) | 4 (70 to less than 90% of herbicidal effect and crop phytotoxicity) | 5 (90% or more of herbicidal effect and crop phytotoxicity) | 5 (90% or more of herbicidal effect and crop phytotoxicity) | 5 (90% or more of herbicidal effect and crop phytotoxicity) | 4 (70 to less than 90% of herbicidal effect and crop phytotoxicity) | 5 (90% or more of herbicidal effect and crop phytotoxicity) | 5 (90% or more of herbicidal effect and crop phytotoxicity) | 5 (90% or more of herbicidal effect and crop phytotoxicity)
COc1cc(OC)cc(-n2c(C(F)(F)F)ccc(C(=O)C3=C(O)CCCC3=O)c2=O)c1 [I-101] | 5 (90% or more of herbicidal effect and crop phytotoxicity) | 5 (90% or more of herbicidal effect and crop phytotoxicity) | 5 (90% or more of herbicidal effect and crop phytotoxicity) | 5 (90% or more of herbicidal effect and crop phytotoxicity) | 5 (90% or more of herbicidal effect and crop phytotoxicity) | 5 (90% or more of herbicidal effect and crop phytotoxicity) | 5 (90% or more of herbicidal effect and crop phytotoxicity) | 5 (90% or more of herbicidal effect and crop phytotoxicity) | 5 (90% or more of herbicidal effect and crop phytotoxicity) | 5 (90% or more of herbicidal effect and crop phytotoxicity) | 5 (90% or more of herbicidal effect and crop phytotoxicity)
O=C1CCCC(O)=C1C(=O)c1ccc(C(F)(F)F)n(-c2ccc(F)cc2F)c1=O [I-102] | 5 (90% or more of herbicidal effect and crop phytotoxicity) | 5 (90% or more of herbicidal effect and crop phytotoxicity) | 5 (90% or more of herbicidal effect and crop phytotoxicity) | 5 (90% or more of herbicidal effect and crop phytotoxicity) | 5 (90% or more of herbicidal effect and crop phytotoxicity) | 5 (90% or more of herbicidal effect and crop phytotoxicity) | 5 (90% or more of herbicidal effect and crop phytotoxicity) | 5 (90% or more of herbicidal effect and crop phytotoxicity) | 5 (90% or more of herbicidal effect and crop phytotoxicity) | 5 (90% or more of herbicidal effect and crop phytotoxicity) | 5 (90% or more of herbicidal effect and crop phytotoxicity)
O=C1CCCC(O)=C1C(=O)c1ccc(C(F)(F)F)n(-c2cc(F)ccc2F)c1=O [I-103] | 5 (90% or more of herbicidal effect and crop phytotoxicity) | 5 (90% or more of herbicidal effect and crop phytotoxicity) | 5 (90% or more of herbicidal effect and crop phytotoxicity) | 5 (90% or more of herbicidal effect and crop phytotoxicity) | 5 (90% or more of herbicidal effect and crop phytotoxicity) | 5 (90% or more of herbicidal effect and crop phytotoxicity) | 5 (90% or more of herbicidal effect and crop phytotoxicity) | 5 (90% or more of herbicidal effect and crop phytotoxicity) | 5 (90% or more of herbicidal effect and crop phytotoxicity) | 5 (90% or more of herbicidal effect and crop phytotoxicity) | 5 (90% or more of herbicidal effect and crop phytotoxicity)
O=C1CCCC(O)=C1C(=O)c1ccc(C(F)(F)F)n(-c2ccc(F)c(F)c2)c1=O [I-105] | 5 (90% or more of herbicidal effect and crop phytotoxicity) | 5 (90% or more of herbicidal effect and crop phytotoxicity) | 5 (90% or more of herbicidal effect and crop phytotoxicity) | 5 (90% or more of herbicidal effect and crop phytotoxicity) | 5 (90% or more of herbicidal effect and crop phytotoxicity) | 5 (90% or more of herbicidal effect and crop phytotoxicity) | 5 (90% or more of herbicidal effect and crop phytotoxicity) | 5 (90% or more of herbicidal effect and crop phytotoxicity) | 5 (90% or more of herbicidal effect and crop phytotoxicity) | 5 (90% or more of herbicidal effect and crop phytotoxicity) | 5 (90% or more of herbicidal effect and crop phytotoxicity)
